According to paper PMC9930781, “Design, synthesis, docking, and anticancer evaluations of new thiazolo[3,2-a] pyrimidines as topoisomerase II inhibitors” (Journal of Enzyme Inhibition and Medicinal Chemistry, 2023):
Like-named read-outs stand apart in the source and are kept apart here.

How the values were obtained:
[1] = In vitro cytotoxicity on WI-38 human cell line (MTT); format: cell-based; details: WI-38 normal fibroblast cells, WI-38 normal fibroblasts
Method: Cell line cells were provided from the American Type Culture Collection cultured in DMEM (Invitrogen/Life Technologies) with 10% FBS (Hyclone), 1% penicillin-streptomycin, and 10 μg/mL insulin (Sigma). The remainder of the chemicals and reagents were provided by either Sigma or Invitrogen. Prior to the MTT assay, plated cells were incubated for 24 h in a 96-well plate with 100 μl of the test substance per well and 100 μl of complete growth medium (cell density 1.2–1.8 × 10,000 cells/well). Cultures were transferred from the incubator and placed in a sterile work area or laminar flow hood. Then, 10% of the culture medium volume of reconstituted MTT was added, and the cultures were incubated for an additional 2 h. After that, cultures were taken out of the incubator, and the formazan crystals were dissolved using MTT solubilising solution [M-8910] in an amount equal to the volume of the original culture medium. The absorbance at 570 nm was measured. Finally, the IC50 of the test compound compared to the reference was calculated using the GraphPad Prism software.

A549 cells [2] = assay: Cell cycle analysis by flow cytometry; format: cell-based, human; details: A549, 4c at IC50 (2 nM), 24 h (b61 also says 48 h)
Method: Briefly, a six-well plate containing lung cancer (A549) cells was seeded with 1 × 10^5 cells per well and then incubated for 24 h. 2 nM of compound 4c or 0.1% DMSO was applied to the cells for 24 h. Following that, cells were gathered and fixed in ice-cold 70% ethanol at 4 °C for 12 h. The cells were then rinsed with cold Phosphate Buffer Saline (PBS) and incubated for 30 min at 37 °C in 0.5 ml of PBS after the ethanol was removed. Propidium iodide was used to stain the cells for 30 min in the dark. DNA content was determined using a flow cytometer.
The cell cycle is required for cell division and replication. The cell cycle was divided into four distinct phases: G1 phase ([…]), S phase (synthesis), G2 phase (interphase), and M phase (mitosis). The G1 phase, also known as the post-mitotic pre-synthesis phase, is distinguished by direct cell division. DNA replication identifies the S phase. The G2 phase, premitotic, or post-synthetic phase, which can be considered the actual division, is when the cell prepares to split into two cells. Finally, the doubled DNA organised in chromosomes is separated during the M- or mitosis-phase division. Many anticancer drugs cause apoptosis, cell cycle arrest, or a combination of both as part of their cytotoxic action.

[3] = system: MCF7 breast cancer cell line; assay: MTT cytotoxicity assay, MCF7; details: SI = IC50 normal cell (WI-38)/IC50 cancer cell (MCF7)
Method: (§1) The MTT test was used to evaluate the inhibitory effects of the substances on cell proliferation in the aforementioned cell lines. This colorimetric assay targets the mitochondrial succinate dehydrogenase of living cells to change yellow tetrazolium bromide (MTT) to a purple formazan derivative. […] Then, the cells were incubated for 24 h and exposed to various chemical concentrations. 20 μL of a 5 mg/mL MTT solution was applied after a 24-h drug treatment period and incubated for 4 h. To dissolve the produced purple formazan, each well receives 100 μL of dimethyl sulfoxide (DMSO). […] The formula for calculating the relative percentage of cell viability was (A570 of treated samples/A570 of the untreated sample) × 100.
The newly prepared compounds were screened against three cancer cell lines: namely, breast cancer cell line MCF7, non-small cell lung cancer (NSCLC) cell line A549, and renal cancer cell line A498, using the MTT colorimetric assay.

human topoisomerase II = human topoisomerase II (Homo sapiens, UniProt P11388); assay: DNA Topo II inhibition (kDNA decatenation) assay; format: biochemical
Method: The ATP-dependent decatenation of kinetoplast DNA (kDNA) obtained from Crithidia fasciculata, which consists of a network of numerous minicircles (2.3 Kb) and some maxicircles, was used to measure topoisomerase II inhibition. Reactions took place in 20 μL and comprised topoisomerase II, 200–300 ng of kDNA, and 120 mM KCl with 50 mM Tris-HCl, pH 8, 10 mM MgCl2, 0.5 mM ATP, and 0.5 mM dithiothreitol. In preliminary tests, the quantity of topoisomerase II (5 units) was changed to decatenate almost 100% of the kDNA under these assay circumstances. […] The products in the reaction mixture were separated by a 1% agarose gel after the reaction was complete and then could be seen after being stained with ethidium bromide (0.2 μg/mL). The gels were run at 100 V for about 40 min and visualised under UV transillumination.
This assay is based on the fact that human Topo II can decatenate interlinked double-stranded DNA molecules.

[4] = system: A549 non-small cell lung cancer (NSCLC) cell line; assay: MTT cytotoxicity assay, A549
Method: as §1

[5] = system: A498 renal cell carcinoma cell line; assay: MTT cytotoxicity assay, A498
Method: as §1

A549 cells [6] = assay: Annexin V-FITC apoptosis assay; format: cell-based, human
Method: Each well of a 6-well plate received 1 × 10^5 conc. lung cancer (A549) cells that were then incubated for 24 h. The cells were then exposed for 24 h to 2 nM compound 4c or (0.1%) DMSO before being harvested, washed with PBS, and stained for 15 min at room temperature in the dark with annexin V-FITC and PI in binding buffer ([…] at pH 7.4). The flow cytometer was then used to examine the cells.
Apoptotic cell death is a method by which an anticancer agent destroys tumour cells. Therefore, compound 4c was additionally estimated through an Annexin V-FITC experiment utilising A549 cells to evaluate if the cytotoxic action of the novel compound is related to necrosis or apoptosis.

Chain of human topoisomerase II (P11388 whole entry): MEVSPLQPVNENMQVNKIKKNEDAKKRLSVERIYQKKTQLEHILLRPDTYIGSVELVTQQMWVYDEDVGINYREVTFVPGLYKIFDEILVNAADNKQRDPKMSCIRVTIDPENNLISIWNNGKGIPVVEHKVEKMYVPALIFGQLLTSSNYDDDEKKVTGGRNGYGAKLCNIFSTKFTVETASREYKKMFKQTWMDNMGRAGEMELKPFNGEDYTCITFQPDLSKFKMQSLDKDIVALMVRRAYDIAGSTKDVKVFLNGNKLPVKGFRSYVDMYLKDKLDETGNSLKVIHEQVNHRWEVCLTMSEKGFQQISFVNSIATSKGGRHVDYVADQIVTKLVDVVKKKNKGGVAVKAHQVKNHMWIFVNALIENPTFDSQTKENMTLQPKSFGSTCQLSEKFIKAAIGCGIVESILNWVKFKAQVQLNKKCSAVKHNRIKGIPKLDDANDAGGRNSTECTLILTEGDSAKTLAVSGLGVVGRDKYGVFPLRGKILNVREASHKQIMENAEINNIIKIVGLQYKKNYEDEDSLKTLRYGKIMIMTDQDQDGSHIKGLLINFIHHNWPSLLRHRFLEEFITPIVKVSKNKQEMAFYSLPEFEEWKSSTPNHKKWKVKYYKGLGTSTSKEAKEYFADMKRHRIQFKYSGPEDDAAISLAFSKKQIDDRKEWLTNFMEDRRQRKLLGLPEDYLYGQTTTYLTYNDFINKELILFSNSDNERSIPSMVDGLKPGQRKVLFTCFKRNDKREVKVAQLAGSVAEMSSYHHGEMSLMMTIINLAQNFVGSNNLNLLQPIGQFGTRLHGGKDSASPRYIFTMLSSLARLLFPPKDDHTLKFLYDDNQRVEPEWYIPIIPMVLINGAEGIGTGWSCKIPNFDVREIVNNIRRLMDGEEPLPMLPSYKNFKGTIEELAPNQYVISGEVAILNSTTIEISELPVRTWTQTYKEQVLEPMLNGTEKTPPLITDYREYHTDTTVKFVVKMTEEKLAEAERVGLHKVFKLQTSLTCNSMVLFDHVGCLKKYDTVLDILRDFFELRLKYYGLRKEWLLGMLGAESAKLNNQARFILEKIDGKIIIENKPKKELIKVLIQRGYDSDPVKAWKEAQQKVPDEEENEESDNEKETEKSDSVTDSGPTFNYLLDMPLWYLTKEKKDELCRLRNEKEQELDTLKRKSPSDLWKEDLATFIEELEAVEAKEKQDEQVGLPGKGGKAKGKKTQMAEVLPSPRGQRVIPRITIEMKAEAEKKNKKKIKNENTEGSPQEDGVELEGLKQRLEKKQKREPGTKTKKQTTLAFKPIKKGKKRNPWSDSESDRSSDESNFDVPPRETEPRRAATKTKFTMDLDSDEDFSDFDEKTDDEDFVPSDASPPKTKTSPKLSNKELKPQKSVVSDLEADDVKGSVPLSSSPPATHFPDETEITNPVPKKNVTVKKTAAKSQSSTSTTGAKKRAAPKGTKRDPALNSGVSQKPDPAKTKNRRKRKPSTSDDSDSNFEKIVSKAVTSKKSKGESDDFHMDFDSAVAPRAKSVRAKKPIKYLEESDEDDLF

## CCOC(=O)C1=C(C)N=C2SC=C(NC(=O)c3c(Cl)cc(Cl)cc3Cl)N2C1c1ccc(OC)cc1OC (stereo not drawn) [Compound 4c, Ethyl 5–(2,4-dimethoxyphenyl)-7-methyl-3–(2,4,6-trichlorobenzamido)-5H-thiazolo[3,2-a]pyrimidine-6-carboxylate]
[1]
  IC50 at 24 h: 15.5 ± 0.84 µM
A549 cells [2]; control 13.97
  %G2/M: 4.04%
A549 cells [2]; control 29.64
  %S: 26.89%
A549 cells [2]; control 56.39
  %G0–G1: 69.07%
[3]
  Selectivity index (SI) MCF7: 7770
Human topoisomerase II; conc 0.1 (μM)
  %inh TOPO II: 44%
Human topoisomerase II; conc 1 (μM)
  %inh TOPO II: 60%
Human topoisomerase II; conc 10 (μM)
  %inh TOPO II: 79%
Human topoisomerase II; conc 100 (μM)
  %inh TOPO II: 92%
Human topoisomerase II; kDNA decatenation, four concentrations 0.1-100 µM, mean ± SD of two independent assays
  IC50: 230 ± 10 nM
Human topoisomerase II; versus IC50 of Doxorubicin
  Topo II potency relative to Doxorubicin (IC50 ratio): 3.6 fold
Human topoisomerase II; versus IC50 of Etoposide
  Topo II potency relative to Etoposide (IC50 ratio): 1.4 fold
[4]; Homo sapiens, A549, 24 h, read-out: Cytotoxicity IC50 A549± SD, MTT, A549, 24 h treatment, mean ± SD of two independent assays
  IC50: 2 nM
[4]; SI = IC50 normal cell (WI-38)/IC50 cancer cell (A549)
  Selectivity index (SI) A549: 7770
[4]; read-out: Cytotoxicity IC50 A549± SD, MTT, A549, 24 h treatment, mean ± SD of two independent assays
  IC50: 1 nM
[5]; Homo sapiens, A498, 24 h, read-out: Cytotoxicity IC50 A498± SD, MTT, A498, 24 h treatment, mean ± SD of two independent assays
  IC50: 1 nM
[5]; SI = IC50 normal cell (WI-38)/IC50 cancer cell (A498)
  Selectivity index (SI) A498: 15540
[5]; read-out: Cytotoxicity IC50 A498± SD, MTT, A498, 24 h treatment, mean ± SD of two independent assays
  IC50: 2 nM
A549 cells [6]; A549
  elevation in the total apoptosis versus control: 26.47 fold
  increase in early apoptotic cells versus control: 61.92 fold
  increase in late apoptotic cells versus control: 97 fold
  increase in the percentage of necrosis versus control: 2.5 fold
A549 cells [6]; A549, 4c at IC50 (2 nM), control 0.13%
  late apoptotic cells: 12.61%
A549 cells [6]; A549, 4c at IC50 (2 nM), control […]
  early apoptotic cells: 24.15%
